From ChEMBL document CHEMBL1201862, “PubChem BioAssay data set” (2004)
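Test compounds were applied to cells in 96-well plates for 48 hours at 5 doses. The concentration for 50% growth inhibition is given as GI50.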 Active and inactive are the calls of the source. No stated cut-off is given here; in the data, active = GI50 up to about 1.1 µM and inactive = higher.

Assays:
Assay in all cases: growth of human tumour cells (NCI), 48 h
RPMI-8226 = tested on: RPMI-8226
SK-OV-3 = tested on: SK-OV-3
K562 = tested on: K562
786-0 = tested on: 786-0
SW-620 = tested on: SW-620
SNB-19 = tested on: SNB-19
Malme-3M = tested on: Malme-3M
EKVX = tested on: EKVX
SF-539 = tested on: SF-539
OVCAR-8 = tested on: OVCAR-8
HCT-116 = tested on: HCT-116
OVCAR-5 = tested on: OVCAR-5
SK-MEL-5 = tested on: SK-MEL-5
IGROV-1 = tested on: IGROV-1
HL-60 = tested on: HL-60
COLO 205 = tested on: COLO 205
SNB-75 = tested on: SNB-75

SMILES | GI50 (RPMI-8226) | GI50 (SK-OV-3) | GI50 (K562) | GI50 (786-0) | GI50 (SW-620) | GI50 (SNB-19) | GI50 (Malme-3M) | GI50 (EKVX) | GI50 (SF-539) | GI50 (OVCAR-8) | GI50 (HCT-116) | GI50 (OVCAR-5) | GI50 (SK-MEL-5) | GI50 (IGROV-1) | GI50 (HL-60) | GI50 (COLO 205) | GI50 (SNB-75)
Cc1nc2ccc(N)cc2nc1O | > 100 µM (inactive) | > 100 µM (inactive) | > 100 µM (inactive) | > 100 µM (inactive) | > 100 µM (inactive) | > 100 µM (inactive) | > 100 µM (inactive) | > 100 µM (inactive) | > 100 µM (inactive) | > 100 µM (inactive) | > 100 µM (inactive) | > 100 µM (inactive) | > 100 µM (inactive) | > 100 µM (inactive) | > 100 µM (inactive) | > 100 µM (inactive) | 
CCOC(=O)C12C(C(=O)OC)=C(C)N(NC(=O)Nc3ccccc3)C1(N)N(NC(=O)Nc1ccccc1)C(C)=C2C(=O)OC (stereo not drawn) | 25.9 µM (inactive) | > 59.8 µM (inactive) | 29.9 µM (inactive) | 39.5 µM (inactive) | 40.6 µM (inactive) | 29.4 µM (inactive) | 21.6 µM (inactive) | 43.5 µM (inactive) | 18.9 µM (inactive) | 27.7 µM (inactive) | 25.3 µM (inactive) | 38.5 µM (inactive) | 19.9 µM (inactive) | 41.2 µM (inactive) | 23.6 µM (inactive) | > 41.1 µM (inactive) | 33.7 µM (inactive)
COc1cccc2c1N[S@](=O)S2 | 63.4 µM (inactive) | > 100 µM (inactive) | 46 µM (inactive) | > 100 µM (inactive) | > 100 µM (inactive) | 38.1 µM (inactive) | > 100 µM (inactive) | > 100 µM (inactive) | > 100 µM (inactive) |  | > 100 µM (inactive) |  |  | > 100 µM (inactive) | > 100 µM (inactive) |  | 81.5 µM (inactive)
CC(=O)OCC1(C)C(OC(C)=O)CCC2(C)C(CC(OC(C)=O)C3=CCOC3=O)C(O)(CO)CCC12 (stereo not drawn) | > 100 µM (inactive) | > 100 µM (inactive) | > 100 µM (inactive) | > 100 µM (inactive) | > 100 µM (inactive) | > 100 µM (inactive) | > 100 µM (inactive) | > 100 µM (inactive) | > 100 µM (inactive) | > 100 µM (inactive) | > 100 µM (inactive) | > 100 µM (inactive) | > 100 µM (inactive) | > 100 µM (inactive) | 61.5 µM (inactive) | > 100 µM (inactive) | > 100 µM (inactive)
[O-][S+]1c2ccccc2N=C(c2cccs2)CC1c1ccccc1O (stereo not drawn) | > 100 µM (inactive) | > 100 µM (inactive) | > 100 µM (inactive) | > 100 µM (inactive) | > 100 µM (inactive) | > 100 µM (inactive) | > 100 µM (inactive) | > 100 µM (inactive) | > 100 µM (inactive) | > 100 µM (inactive) |  | > 100 µM (inactive) | > 100 µM (inactive) | 16.5 µM (inactive) | > 100 µM (inactive) | > 100 µM (inactive) | 32.4 µM (inactive)
CSC(=S)c1ccc(C(=S)SC)cc1 | > 100 µM (inactive) | > 100 µM (inactive) | > 100 µM (inactive) | > 100 µM (inactive) | > 100 µM (inactive) | > 100 µM (inactive) | > 100 µM (inactive) | > 100 µM (inactive) | > 100 µM (inactive) | > 100 µM (inactive) | > 100 µM (inactive) | > 100 µM (inactive) | > 100 µM (inactive) | > 100 µM (inactive) | > 100 µM (inactive) | > 100 µM (inactive) | > 100 µM (inactive)
O=C1c2ccccc2C(=O)N1/N=C\c1ccc(Br)cc1 | > 10 µM (inactive) | > 100 µM (inactive) | > 10 µM (inactive) | > 10 µM (inactive) | > 10 µM (inactive) | > 10 µM (inactive) | > 10 µM (inactive) | > 10 µM (inactive) | > 10 µM (inactive) | > 10 µM (inactive) | > 10 µM (inactive) | > 10 µM (inactive) | > 10 µM (inactive) | > 10 µM (inactive) | > 10 µM (inactive) | > 100 µM (inactive) | > 10 µM (inactive)
O=C(NCC(O)CNC(=O)C(F)(F)F)C(F)(F)F | > 100 µM (inactive) | > 100 µM (inactive) | > 100 µM (inactive) | > 100 µM (inactive) | > 100 µM (inactive) | > 100 µM (inactive) | > 100 µM (inactive) | > 100 µM (inactive) | > 100 µM (inactive) | > 100 µM (inactive) | > 100 µM (inactive) | > 100 µM (inactive) | > 100 µM (inactive) | > 100 µM (inactive) | > 100 µM (inactive) | > 100 µM (inactive) | > 100 µM (inactive)
CC(C)N(C(=O)C12C3C4C5(C#N)C3C1(I)C5C42I)C(C)C (stereo not drawn) | > 49.8 µM (inactive) | > 100 µM (inactive) | > 52.8 µM (inactive) | > 46.1 µM (inactive) | > 27 µM (inactive) | > 100 µM (inactive) | > 100 µM (inactive) | > 100 µM (inactive) | > 60.8 µM (inactive) | > 100 µM (inactive) | 17.8 µM (inactive) | > 100 µM (inactive) | > 100 µM (inactive) | > 100 µM (inactive) | > 47.4 µM (inactive) | > 42 µM (inactive) | > 70.3 µM (inactive)
CCCCn1c2ccccc2c2ccc3c(c21)C(=O)C=CC3=O | > 100 µM (inactive) | > 100 µM (inactive) | 84.3 µM (inactive) | > 100 µM (inactive) | > 100 µM (inactive) | > 100 µM (inactive) | > 100 µM (inactive) |  | > 100 µM (inactive) | > 100 µM (inactive) | > 100 µM (inactive) | > 100 µM (inactive) | > 100 µM (inactive) | > 100 µM (inactive) |  | > 100 µM (inactive) | 0.0521 µM (active)
O=C(CCN1CCCCC1CO)Nc1ccc2c(c1)C(=O)c1ccc(NC(=O)CCN3CCCCC3CO)cc1C2=O (stereo not drawn) | 13.2 µM (inactive) | 13.7 µM (inactive) | 6.25 µM (inactive) | 1.98 µM (inactive) | 3.64 µM (inactive) | 11 µM (inactive) | 5.27 µM (inactive) | 19.1 µM (inactive) | 3.6 µM (inactive) | 6.73 µM (inactive) | 7.38 µM (inactive) | 18.7 µM (inactive) | 15.4 µM (inactive) | 9.68 µM (inactive) | 10.6 µM (inactive) | 7.71 µM (inactive) | 4.28 µM (inactive)
CCCOC(=O)C1CCC(=O)N1C(=O)C(Cl)Cl (stereo not drawn) | > 100 µM (inactive) | > 100 µM (inactive) | > 100 µM (inactive) | > 100 µM (inactive) | > 100 µM (inactive) | > 100 µM (inactive) | > 100 µM (inactive) | > 100 µM (inactive) |  | > 100 µM (inactive) | > 100 µM (inactive) | > 100 µM (inactive) | > 100 µM (inactive) | > 100 µM (inactive) | > 100 µM (inactive) | > 100 µM (inactive) | 59 µM (inactive)
Cc1ccc(-c2cc(=O)c3cc(C)c(C)c(C(=O)O)c3o2)cc1[N+](=O)[O-] | > 100 µM (inactive) | > 100 µM (inactive) | > 100 µM (inactive) | > 100 µM (inactive) | > 100 µM (inactive) | > 100 µM (inactive) | > 100 µM (inactive) | > 100 µM (inactive) | > 100 µM (inactive) | > 100 µM (inactive) | > 100 µM (inactive) | > 100 µM (inactive) | > 100 µM (inactive) | > 100 µM (inactive) |  | > 100 µM (inactive) | > 100 µM (inactive)
COC(=O)C1(C)CCc2c(OC)ccc(OC)c2C1=O (stereo not drawn) | > 100 µM (inactive) | > 100 µM (inactive) | > 100 µM (inactive) | > 100 µM (inactive) | > 100 µM (inactive) | > 100 µM (inactive) | > 100 µM (inactive) | > 100 µM (inactive) | > 100 µM (inactive) | > 100 µM (inactive) | > 100 µM (inactive) | > 100 µM (inactive) | > 100 µM (inactive) | > 100 µM (inactive) | > 100 µM (inactive) | > 100 µM (inactive) | 29.8 µM (inactive)
O=C(CCN1CCCC1)CC(c1ccccc1)c1c(O)c2ccccc2oc1=O (stereo not drawn) | > 100 µM (inactive) | > 100 µM (inactive) | > 100 µM (inactive) | > 100 µM (inactive) | > 100 µM (inactive) | > 100 µM (inactive) | > 100 µM (inactive) | > 100 µM (inactive) |  | > 100 µM (inactive) | > 100 µM (inactive) |  | > 100 µM (inactive) | > 100 µM (inactive) | > 100 µM (inactive) | > 100 µM (inactive) | > 100 µM (inactive)
O=C(O)OC12CCCCCC1C(=O)C1CCCCC12 (stereo not drawn) | 43.1 µM (inactive) | > 100 µM (inactive) | 42 µM (inactive) | > 100 µM (inactive) | > 100 µM (inactive) | 89.5 µM (inactive) | > 100 µM (inactive) | 82.4 µM (inactive) |  | > 100 µM (inactive) | 57.4 µM (inactive) |  | > 100 µM (inactive) |  | 47 µM (inactive) | > 100 µM (inactive) | 20.1 µM (inactive)
Cc1ccc(N2C(=O)CS/C2=C(\C#N)c2nc3ccccc3[nH]2)cc1 | > 100 µM (inactive) |  | > 100 µM (inactive) | > 100 µM (inactive) | > 100 µM (inactive) | > 100 µM (inactive) | > 100 µM (inactive) | > 100 µM (inactive) | > 100 µM (inactive) | > 100 µM (inactive) | > 100 µM (inactive) | > 100 µM (inactive) | > 100 µM (inactive) | > 100 µM (inactive) | > 100 µM (inactive) | > 100 µM (inactive) | > 100 µM (inactive)
